These results are taken from patent publication US6423720B1, “Pyrimidine compounds and methods for making and using the same” (Duquesne University of the Holy Ghost, priority 2001, dated 2002).

Marks after values point to notes of the source that are not given here.

A word on the inhibition: it is the change of the read-out against control, counted positive when it falls. The melting point is the temperature, or range, at which the solid turns liquid.

Data set [1] deals with T1, dihydrofolate reductase (DHFR) from rat liver (RL) (Rattus norvegicus, UniProt Q920D2).
T1 construct: the IC50 value of the DHFR from rat liver (RL); from tissue; host or cells: rat liver
T1 sequence (Q920D2 1-187): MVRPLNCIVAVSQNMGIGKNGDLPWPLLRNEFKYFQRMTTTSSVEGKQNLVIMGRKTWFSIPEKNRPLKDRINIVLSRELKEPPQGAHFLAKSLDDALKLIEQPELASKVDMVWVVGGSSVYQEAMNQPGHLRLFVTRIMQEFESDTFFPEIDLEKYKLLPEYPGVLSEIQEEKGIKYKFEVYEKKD
Description: Inhibition of dihydrofolate reductase from rat liver (RL DHFR). The data set is classed as biochemical. The conditions noted are these: for IC50: read-out: RL DHFR Inhibitory Concentration (IC50). The text has this: (§1) The following examples are intended to illustrate the invention, and should not be construed as limiting the invention in any way. Standard test procedures familiar to those skilled in the art were used in the examples, such as those procedures described by Gangjee, A., et al., in “5-Arylthio-substituted 2-amino-4-oxo-6-methyl pyrrolo[2,3-d]pyrimidine antifolates as thymidylate synthase inhibitors and antitumor agents”, J. Med. Chem., Vol. 38, pp. 4495-4502 (1995); “Effect of bridge region variation on antifolate and antitumor activity of classical 5-substituted 2,4-diamino furo [2,3-d]pyrimidines”, J. Med. Chem., Vol. 38, pp. 3798-3805 (1995); and “Novel 2 ,4-diamino-5-substituted-pyrrolo[2,3-d]pyrimidines As Classical and Non-Classical Antifolate Inhibitors of Dihydrofolate Reductases”, J. Med. Chem., Vol. 38, pp. 2158-2165 (Jun. 6, 1995) and references disclosed therein.
(§2) The compounds described in Table 1 were evaluated as inhibitors of dihydrofolate reductase (DHFR) from Toxoplasmosis gondii (Tx) and rat liver (RL). The evaluation of the compounds consisted of determining the IC50 values and selectivity ratios of each compound against Tx DHFR and RL DHFR. The IC50 value is the concentration of a compound required to inhibit the dihydrofolate reductase activity by 50 percent (%). […] The selectivity ratio is a measure of the selectivity of a compound for Tx DHFR and is expressed as the IC50 value of the DHFR from rat liver (RL) divided by the IC50 value of the Tx DHFR. For example, the selectivity ratio of a compound is calculated by the following formula: [formula]

In data set [2] the target is T2, dihydrofolate reductase (DHFR) from Toxoplasmosis gondii (Tx) (Toxoplasma gondii, UniProt Q07422).
T2 sequence (Q07422 1-610): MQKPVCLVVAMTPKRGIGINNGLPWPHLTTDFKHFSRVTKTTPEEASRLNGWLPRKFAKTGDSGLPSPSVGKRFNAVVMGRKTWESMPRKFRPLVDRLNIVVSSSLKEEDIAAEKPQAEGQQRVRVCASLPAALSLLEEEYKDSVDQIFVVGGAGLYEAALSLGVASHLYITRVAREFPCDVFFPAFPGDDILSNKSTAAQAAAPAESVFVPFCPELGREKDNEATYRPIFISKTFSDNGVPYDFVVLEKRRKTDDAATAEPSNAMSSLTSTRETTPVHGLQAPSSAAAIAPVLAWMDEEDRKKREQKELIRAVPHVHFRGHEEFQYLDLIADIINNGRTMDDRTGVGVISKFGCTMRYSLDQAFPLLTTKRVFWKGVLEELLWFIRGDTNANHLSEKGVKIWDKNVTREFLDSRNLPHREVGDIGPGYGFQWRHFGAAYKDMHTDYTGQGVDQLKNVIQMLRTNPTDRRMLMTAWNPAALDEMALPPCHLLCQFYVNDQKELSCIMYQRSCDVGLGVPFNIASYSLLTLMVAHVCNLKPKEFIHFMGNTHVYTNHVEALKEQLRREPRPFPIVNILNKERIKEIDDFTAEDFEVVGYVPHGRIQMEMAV
Put plainly: Inhibition of dihydrofolate reductase from Toxoplasmosis gondii (Tx DHFR). In kind it is biochemical. Particulars: for Selectivity Ratio: RL DHFR/Tx DHFR: IC50 RL DHFR divided by IC50 Tx DHFR; for IC50: Toxoplasma gondii DHFR, read-out: Tx DHFR Inhibitory Concentration (IC50).
Excerpt: as §1, §2

For data set [3], the target named is T3, DHFR from Pneumocystis carinii (PC) (Pneumocystis carinii, UniProt P16184).
T3 sequence (P16184 1-206): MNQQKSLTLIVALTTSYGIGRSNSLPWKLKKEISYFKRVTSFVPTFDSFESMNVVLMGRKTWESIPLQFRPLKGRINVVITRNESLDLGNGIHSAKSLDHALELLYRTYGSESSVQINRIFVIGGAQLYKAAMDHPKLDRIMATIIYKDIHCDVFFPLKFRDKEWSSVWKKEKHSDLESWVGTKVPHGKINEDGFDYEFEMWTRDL
Put plainly: Inhibition of DHFR from Pneumocystis carinii (Pc). In kind it is biochemical.

Take `Nc1nc(N)c(SCc2ccc(Cl)cc2)c(=O)[nH]1` [Compound 180]: the “RL DHFR inhibition at 60 μM” value in data set [1] (@ 60 μM) turned out to be 26% @ 60 μM. Also, in data set [2], the “Selectivity Ratio: RL DHFR/Tx DHFR” value is recorded as >3.16# and the IC50 amounted to 16600 nM.

Turning to `Nc1nc(N)c(Sc2ccccn2)c(=O)[nH]1` [Compound 188], the IC50 in data set [1] was 117 µM; in data set [2], 4700 nM. Further, the “Selectivity Ratio: RL DHFR/Tx DHFR” value in data set [2] was found to be 24.9.

For `Cc1ccc(CSc2c(N)nc(N)[nH]c2=O)cc1` [Compound 194], in data set [1], the IC50 is 193 µM. Further, in data set [2], the “Selectivity Ratio: RL DHFR/Tx DHFR” value is 25.4 and the IC50 came out at 7600 nM.

Consider `Nc1nc(N)c(Sc2ccc(Cl)cc2)c(=O)[nH]1` [Compound 167], for which, in data set [1], the IC50 was 19.8 µM. Further, in data set [2], the “Selectivity Ratio: RL DHFR/Tx DHFR” value was 90.0 and the IC50 is 220 nM.

Turning to `Nc1nc(N)c(SCc2ccc(Br)cc2)c(=O)[nH]1` [Compound 202], in data set [1], the IC50 came out at 46.7 µM. Also, in data set [2], the “Selectivity Ratio: RL DHFR/Tx DHFR” value was determined as 24.6 and the IC50 came to 1900 nM.

In the case of `Nc1nc(N)c(Sc2ccc3ccccc3c2)c(=O)[nH]1` [Compound 174], the values for the IC50 in data set [1] and in data set [2] were 30 µM and 350 nM, respectively. Besides, the “Selectivity Ratio: RL DHFR/Tx DHFR” value in data set [2] is 85.7.

Turning to `Nc1nc(N)c(Sc2ccc(C(=O)O)cc2)c(=O)[nH]1` [Compound 170], in data set [3] (IC50 RL DHFR divided by IC50 Pc DHFR), the RL/Pc selectivity ratio worked out at 1.4. Further, the IC50 in data set [3] (Pneumocystis carinii DHFR) worked out at 89.5 µM; in data set [1], 122 µM; in data set [2], 53800 nM. Moreover, the “Selectivity Ratio: RL DHFR/Tx DHFR” value in data set [2] worked out at 2.3.

For `Nc1nc(N)c(Sc2ccncc2)c(=O)[nH]1` [Compound 179], the IC50 in data set [1] turned out to be 101 µM. Also, in data set [2], the “Selectivity Ratio: RL DHFR/Tx DHFR” value was determined as 11.9 and the IC50 came to 8500 nM.

With `COc1ccccc1Sc1c(N)nc(N)[nH]c1=O` [Compound 198], the results for the IC50 in data set [1] and in data set [2] were 263 µM and 5800 nM, respectively. In addition, in data set [2], the “Selectivity Ratio: RL DHFR/Tx DHFR” value is on record as 45.3.

On to `COc1ccc(OC)c(Sc2c(N)nc(N)[nH]c2=O)c1` [Compound 169], for which the values for the IC50 in data set [1] and in data set [2] were 28.5 µM and 200 nM, respectively. In addition, in data set [2], the “Selectivity Ratio: RL DHFR/Tx DHFR” value worked out at 142.5.

In the case of `Nc1nc(N)c(SCc2ccc(Cl)c(Cl)c2)c(=O)[nH]1` [Compound 190], the IC50 in data set [1] was determined as 24.2 µM. Moreover, in data set [2], the “Selectivity Ratio: RL DHFR/Tx DHFR” value is listed as 16.1 and the IC50 was 1500 nM.

In the case of `COc1cccc(CSc2c(N)nc(N)[nH]c2=O)c1` [Compound 191], the IC50 in data set [1] was determined as 66.8 µM. In data set [2], the “Selectivity Ratio: RL DHFR/Tx DHFR” value is reported as 10.1 and the IC50 was found to be 6600 nM.

Take `COc1cccc(Sc2c(N)nc(N)[nH]c2=O)c1` [Compound 175]: the IC50 in data set [1] was determined as 53.4 µM. For the same molecule, in data set [2], the “Selectivity Ratio: RL DHFR/Tx DHFR” value is 92.1 and the IC50 is 580 nM.

Take `Nc1nc(N)c(Sc2ccccc2Cl)c(=O)[nH]1` [Compound 171]: the IC50 in data set [1] was determined as 4.7 µM. Further, in data set [2], the “Selectivity Ratio: RL DHFR/Tx DHFR” value is recorded as 13.4 and the IC50 stood at 350 nM.

With `Nc1nc(N)c(SCc2ccccc2Cl)c(=O)[nH]1` [Compound 197], in data set [1], the IC50 came out at 8.2 µM. In data set [2], the “Selectivity Ratio: RL DHFR/Tx DHFR” value is 3.7 and the IC50 stood at 2200 nM.

Regarding `Nc1nc(N)c(Sc2ccc(Cl)cc2Cl)c(=O)[nH]1` [Compound 177], the IC50 in data set [1] was determined as 2.3 µM. Further, in data set [2], the “Selectivity Ratio: RL DHFR/Tx DHFR” value was 16.4 and the IC50 was 140 nM.

For `Nc1nc(N)c(Sc2nc(-c3ccccc3)cs2)c(=O)[nH]1` [Compound 199], the IC50 in data set [1] was 53 µM. Also, in data set [2], the “Selectivity Ratio: RL DHFR/Tx DHFR” value came out at 4.3 and the IC50 came out at 12200 nM.

Take `Cc1cccc(CSc2c(N)nc(N)[nH]c2=O)c1` [Compound 196]: the “RL DHFR inhibition at 90 μM” value in data set [1] (@ 90 μM) is 3% @ 90 μM. In data set [2], the “Selectivity Ratio: RL DHFR/Tx DHFR” value is recorded as >7.18 # and the IC50 is 11500 nM.

Consider `Nc1nc(N)c(SCc2ccc(Cl)cc2Cl)c(=O)[nH]1` [Compound 193], for which the IC50 stood at 7 µM in data set [1] and 700 nM in data set [2]. In addition, in data set [2], the “Selectivity Ratio: RL DHFR/Tx DHFR” value worked out at 10.

Consider `Nc1nc(N)c(Sc2cccc3ccccc23)c(=O)[nH]1` [Compound 165], for which the IC50 in data set [1] is 97.2 µM; in data set [2], 490 nM. The “Selectivity Ratio: RL DHFR/Tx DHFR” value in data set [2] amounted to 198.4.

On to `Nc1nc(N)c(Sc2c(Cl)cccc2Cl)c(=O)[nH]1` [Compound 176], for which the IC50 in data set [1] came to 17.5 µM. Moreover, in data set [2], the “Selectivity Ratio: RL DHFR/Tx DHFR” value is 10.3 and the IC50 turned out to be 1700 nM.

In the case of `COc1ccc(Sc2c(N)nc(N)[nH]c2=O)cc1OC` [Compound 181], 67 µM produced 19% inhibition in data set [1] (@ 67 μM). In data set [2], the “Selectivity Ratio: RL DHFR/Tx DHFR” value is >35.2# and the IC50 was 1900 nM.

For `Nc1nc(N)c(Sc2cc(Cl)cc(Cl)c2)c(=O)[nH]1` [Compound 184], in data set [1], the IC50 was 20.2 µM. In addition, in data set [2], the “Selectivity Ratio: RL DHFR/Tx DHFR” value turned out to be 74.8 and the IC50 turned out to be 270 nM.

Take `Nc1nc(N)c(Sc2ccc([N+](=O)[O-])cc2)c(=O)[nH]1` [Compound 185, 2,4-diamino-6-oxo-5-(4′-nitrophenylthio)pyrimidine]: the melting point was > 300 °C (dec.). The IC50 in data set [1] came out at 15 µM. In addition, in data set [2], the “Selectivity Ratio: RL DHFR/Tx DHFR” value worked out at 55.6 and the IC50 amounted to 270 nM.

As to `Nc1nc(N)c(SCc2ccccc2)c(=O)[nH]1` [Compound 187], in data set [1], the IC50 is 40.7 µM. Besides, in data set [2], the “Selectivity Ratio: RL DHFR/Tx DHFR” value is 7.7 and the IC50 stood at 5300 nM.
